Experimental data published in patent US20230140290A1, “SALICYLAMIDE DERIVATIVES AND RELATED METHODS OF MAKING” (THE BOARD OF REGENTS OF THE UNIVERSITY OF TEXAS SY, priority 2020, published 2023).
Read-outs that look alike come from different tables or passages of the source.

Legend:
[1] = Cytotoxicity assay (AlamarBlue); details: human, A549 cells
Method: (§1) Cytotoxicity Assay. The cytotoxicity of the compounds was analyzed by commercial kit AlamarBlue® (Invitrogen, Ref. DAL1025). A549 cells at a density of 5×10^3 cells per well in 96-well plates were seeded. […] Cells were then incubated at 37° C. for 48 h following the kit protocol. The cytotoxic concentration 50 (CC50) value was obtained using the statistical package GraphPad Prism. This assay was performed in duplicate.

A549 cells = experiment: Cytotoxicity assay (AlamarBlue); details: read-out: CC50 (μM), cytotoxic concentration 50%; A549 cell line, 48 h
Method: as §1

HAdV5-GFP = experiment: Plaque assay (inhibition of HAdV plaque formation); type: cell-based, HAdV-5; details: for Selectivity index (SI): ratio of CC50 to IC50 in plaque assay; for inhibition at 10 µM: read-out: Plaque Assay (%) Inhibition (10 μM)
Procedure, shortened: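 Cells at 80-90% confluency infected with HAdV5-GFP at 0.06 vp/cell, rocked 2 h at 37° C, then washed with PBS. Compounds tested at 10 μM and in dose-response from 10 to 0.3 μM, included in the post-infection mixture.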

[2] = HAdV5-GFP, low MOI, 293β5 cell line, read-out: Plaque Assay IC50

Compound | CC50 at 48 h [1] [µM] | CC50 (A549 cells) [µM] | IC50 (HAdV5-GFP; [2]) [µM] | Selectivity index (SI) (HAdV5-GFP) | inhibition at 10 µM (HAdV5-GFP) [%] | IC50 (HAdV5-GFP; {}) [µM]
O=C(Nc1ccc(NCc2ccncc2)cc1Cl)c1cc(Cl)ccc1O [Compound 108, 5-Chloro-N-(2-chloro-4-((pyridin-4-ylmethyl)amino)phenyl)-2-hydroxybenzamide] | 65.3 to 126 | 65.3 ± 5.7 | 1.66 to 4.78 | 24.6 | 100 | 2.66 ± 0.17
O=C(Nc1ccc(NCc2cccc(Br)n2)cc1Cl)c1cc(Cl)ccc1O [Compound 111, N-(4-(((6-Bromopyridin-2-yl)methyl)amino)-2-chlorophenyl)-5-chloro-2-hydroxybenzamide] | 65.3 to 126 | 92.3 ± 9.5 | 1.66 to 4.78 | 40.8 | 100 | 2.26 ± 0.05
O=C(Nc1ccc(NCc2cnccc2Cl)cc1Cl)c1cc(Cl)ccc1O [Compound 110, 5-Chloro-N-(2-chloro-4-(((4-chloropyridin-3-yl)methyl)amino)phenyl)-2-hydroxybenzamide] | 65.3 to 126 | 126 ± 25.1 | 1.66 to 4.78 | 75.7 | 100 | 1.66 ± 0.42
O=C(Nc1ccc(NCc2cccnc2Cl)cc1Cl)c1cc(Cl)ccc1O [Compound 109, 5-Chloro-N-(2-chloro-4-(((2-chloropyridin-3-yl)methyl)amino)phenyl)-2-hydroxybenzamide] | 65.3 to 126 | 100 ± 29.8 | – | 21.0 | 100 | –
